Results from PMC10648349, “Aromatic Diboronic Acids as Effective KPC/AmpC Inhibitors” (Molecules, 2023).
Values after ≈ are worked out from the molar mass of the structure shown.

Experiments:
[1] = system: P. aeruginosa MUW 700 AmpC(+); assay: screening test of direct antimicrobial activity (STDA), disc-diffusion; type: cell-based; conditions: Pseudomonas aeruginosa, - no zone, read-out: Diameter of inhibition zone around disc with tested agent
Procedure: (§1) Prior to combination disc tests, screening tests of direct antimicrobial activity (STDA) of the tested agent against β-lactamase-producing strains were performed by the disc-diffusion method. Discs with 0.3 mg, 0.1 mg, and 0.03 mg of each agent were examined. The highest amount of an agent that caused no effect on bacterial growth was used in further experiments.

[2] = system: K. pneumoniae ATCC BAA 1705 KPC(+); assay: as above; type: cell-based; conditions: Klebsiella pneumoniae, BAA1705, - no zone, read-out: Diameter of inhibition zone around disc with tested agent
Procedure: as §1

E. coli 77 CMY-2(+) [3] = assay: as above; type: cell-based; conditions: Escherichia coli, - no zone, read-out: Diameter of inhibition zone around disc with tested agent
Procedure: as §1

[4] = system: K. pneumoniae ATCC 700603 ESBL(+); assay: as above; type: cell-based; conditions: Klebsiella pneumoniae, ATCC700603, - no zone, read-out: Diameter of inhibition zone around disc with tested agent
Procedure: as §1

[5] = system: K. pneumoniae ATCC BAA-1705 KPC-2(+); assay: MIC of tested agent alone, microdilution; type: cell-based; conditions: Klebsiella pneumoniae, ATCCBAA1705; read-out: MIC of agent alone
How it was run: (§2)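 Checkerboard microdilution; β-lactam 1–64 mg/L (7 two-fold steps) × agent/PBA 4–16 mg/L (3 two-fold steps). Agent-alone MIC by standard microdilution. FICI from first no-growth wells along growth interface.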

[6] = system: K. pneumoniae 83 KPC-3(+), CTX-M-3(+); assay: MIC of tested agent alone, microdilution; type: cell-based; conditions: Klebsiella pneumoniae; read-out: MIC of agent alone
How it was run: as §2

E. coli 76 KPC-2(+) = assay: MIC of tested agent alone, microdilution; type: cell-based; conditions: Escherichia coli; read-out: MIC of agent alone
How it was run: as §2

[7] = system: P. aeruginosa MUW 700 AmpC(+); assay: MIC of tested agent alone, microdilution; type: cell-based; conditions: Pseudomonas aeruginosa; read-out: MIC of agent alone
How it was run: as §2

[8] = system: K. pneumoniae 81 KPC-3(+); assay: MIC of tested agent alone, microdilution; type: cell-based; conditions: Klebsiella pneumoniae; read-out: MIC of agent alone
How it was run: as §2

E. coli 77 CMY-2(+) [9] = assay: MIC of tested agent alone, microdilution; type: cell-based; conditions: Escherichia coli; read-out: MIC of agent alone
How it was run: as §2

[10] = system: C. guilliermondii IBA 155; assay: antifungal activity (disc-diffusion, MIC, MFC); type: cell-based, Candida guilliermondii; conditions: Meyerozyma guilliermondii, IBA155
How it was run: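 Testing of direct antimicrobial action relied on CLSI and EUCAST protocols, namely disc diffusion, MIC and cidal-concentration determinations. Each disc carried 0.4 mg of test agent.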

[11] = system: K. pneumoniae ATCC 700603 ESBL-positive; assay: combination disc test CDT-ESBL; type: cell-based; conditions: Klebsiella pneumoniae, ATCC700603; agent 0.03 mg per disc; read-out: Diameter of inhibition zone, CAZ-30 disc with agent
[12] = system: E. coli 76 KPC-2-positive; assay: checkerboard microdilution, antibiotic plus tested agent; type: cell-based, Escherichia coli
How it was run: (§3)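 β-lactam 1–64 mg/L × agent/PBA 4–16 mg/L checkerboard; meropenem vs carbapenemase producers, ceftazidime vs AmpC producer; imipenem, ertapenem added for selected agents. Readout: combination MICs, FICI (average and lowest); off-scale MICs taken as next doubling.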

[13] = system: K. pneumoniae 83 KPC-3-positive, CTX-M-3-positive; assay: as above; type: cell-based, Klebsiella pneumoniae
How it was run: as §3

[14] = system: K. pneumoniae ATCC BAA-1705 KPC-2-positive; assay: as above; type: cell-based, Klebsiella pneumoniae
How it was run: as §3

[15] = system: K. pneumoniae 81 KPC-3-positive; assay: as above; type: cell-based, Klebsiella pneumoniae
How it was run: as §3

OB(O)c1cc(F)ccc1F [7a, 2,5-difluorophenylboronic acid]
zone of inhibition at 100 µg/disc ([1]; 0.1 mg per disc): 11 mm | zone of inhibition at 300 µg/disc ([1]; 0.3 mg per disc): 12 mm | zone of inhibition at 100 µg/disc ([2]; 0.1 mg per disc): 12 mm | zone of inhibition at 300 µg/disc ([2]; 0.3 mg per disc): 17 mm | zone of inhibition at 100 µg/disc (E. coli 77 CMY-2(+) [3]; 0.1 mg per disc): 13 mm | zone of inhibition at 300 µg/disc (E. coli 77 CMY-2(+) [3]; 0.3 mg per disc): 18 mm | zone of inhibition at 100 µg/disc ([4]; 0.1 mg per disc): 18 mm | zone of inhibition at 300 µg/disc ([4]; 0.3 mg per disc): 18 mm | MIC [5]: 100 µg/mL | MIC [6]: 100 µg/mL | MIC (E. coli 76 KPC-2(+)): 100 µg/mL | MIC [7]: 400 µg/mL | MIC [8]: 200 µg/mL | MIC (E. coli 77 CMY-2(+) [9]): 100 µg/mL | zone of inhibition at 0.4 mg/disc ([10]; 0.4 mg per disc, 9 mm disc (fluconazole 0.025 mg, 6 mm disc), - no zone, read-out: Diameter of inhibition zone): 33 mm | MIC ([10]; fluconazole by Etest): 25 µg/mL (≈ 158 µM) | zone of inhibition at 30 µg/disc [11]: 15 mm | Average FICI with ERT [12]: 0.51 | Average FICI with IMI [12]: 0.30 | Average FICI with MEM [12]: 0.51 | The lowest FICI with ERT [12]: 0.41 | The lowest FICI with IMI [12]: 0.29 | The lowest FICI with MEM [12]: 0.41 | Average FICI with ERT [13]: 0.51 | Average FICI with IMI [13]: 0.30 | Average FICI with MEM [13]: 0.47 | The lowest FICI with ERT [13]: 0.41 | The lowest FICI with IMI [13]: 0.29 | The lowest FICI with MEM [13]: 0.29 | Average FICI with ERT [14]: 0.76 | Average FICI with IMI [14]: 0.43 | Average FICI with MEM [14]: 0.51 | The lowest FICI with ERT [14]: 0.58 | The lowest FICI with IMI [14]: 0.33 | The lowest FICI with MEM [14]: 0.41 | Average FICI with ERT [15]: 0.46 | Average FICI with IMI [15]: 0.21 | Average FICI with MEM [15]: 0.23 | The lowest FICI with ERT [15]: 0.33 | The lowest FICI with IMI [15]: 0.17 | The lowest FICI with MEM [15]: 0.14
